From patent US10597388B2, “Pyridazinone herbicides” (FMC CORPORATION, priority 2014, dated 2020)

Legend:
Format in all cases: in vivo
[1] = system: morningglory (Ipomoea coccinea); assay: Test C greenhouse herbicide test, pre- and postemergence
Excerpt: (§1) Seeds of plant species selected from blackgrass (Alopecurus myosuroides), ryegrass, Italian (Italian ryegrass, Lolium multiflorum), wheat (winter wheat, Triticum aestivum), galium (catchweed bedstraw, Galium aparine), corn (Zea mays), large crabgrass, large (large crabgrass, Digitaria sanguinalis), foxtail, giant (giant foxtail, Setaria faberii), johnsongrass (Sorghum halepense), lambsquarters (Chenopodium album), morningglory (Ipomoea coccinea), nutsedge, yellow (yellow nutsedge, Cyperus esculentus), pigweed (Amaranthus retroflexus), ragweed (common ragweed, Ambrosia elatior), soybean (Glycine max), barnyardgrass (Echinochloa crus-galli), oilseed rape (Brassica napus), waterhemp (common waterhemp, Amaranthus rudis), and velvetleaf (Abutilon theophrasti) were planted into a blend of loam soil and sand and treated preemergence with test chemicals formulated in a non-phytotoxic solvent mixture which included a surfactant.
(§2) At the same time, plants selected from these crop and weed species and also chickweed (common chickweed, Stellaria media), kochia (Kochia scoparia), and oat, wild (wild oat, Avena fatua), were planted in pots containing Redi-Earth® planting medium (Scotts Company, 14111 Scottslawn Road, Marysville, Ohio 43041) comprising spaghnum peat moss, vermiculite, wetting agent and starter nutrients and treated with postemergence applications of test chemicals formulated in the same manner. Plants ranged in height from 2 to 18 cm (1- to 4-leaf stage) for postemergence treatments. Treated plants and controls were maintained in a greenhouse for 13 to 15 d, after which time all species were compared to controls and visually evaluated. Plant response ratings, summarized in Table C, are based on a scale of 0 to 100 where 0 is no effect and 100 is complete control. A dash (-) response means no test result.

[2] = system: ragweed (common ragweed, Ambrosia elatior); assay: as above
Excerpt: as §1, §2

[3] = system: lambsquarters (Chenopodium album); assay: as above
Excerpt: as §1, §2

[4] = system: waterhemp (common waterhemp, Amaranthus rudis); assay: as above
Excerpt: as §1, §2

[5] = system: oilseed rape (Brassica napus); assay: as above
Excerpt: as §1, §2

[6] = system: pigweed (Amaranthus retroflexus); assay: as above
Excerpt: as §1, §2

[7] = system: galium (catchweed bedstraw, Galium aparine); assay: Test A greenhouse herbicide test, postemergence; conditions: for Galium plant response rating: 0 to 100 scale, 0 is no effect, 100 is complete control
How it was run: (§3)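 Plants grown in loam soil/sand blend pots were treated postemergence at 2 to 10 cm height, one- to two-leaf stage, with formulated test chemicals. After approximately 10 d in a greenhouse, injury was rated visually against untreated controls on a 0 to 100 scale (0 no effect, 100 complete control).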

[8] = system: blackgrass (Alopecurus myosuroides); assay: Test A greenhouse herbicide test, postemergence; conditions: for Blackgrass plant response rating: 0 to 100 scale, 0 is no effect, 100 is complete control
How it was run: as §3

[9] = system: wheat (Triticum aestivum); assay: Test A greenhouse herbicide test, pre- and postemergence; conditions: Postemergence; for Wheat plant response rating: 0 to 100 scale, 0 is no effect, 100 is complete control
How it was run: (§4)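 Seeds sown in loam–sand blend got a preemergence directed soil spray of compound in non-phytotoxic solvent with surfactant. Postemergence treatment was given at 2–10 cm, one- to two-leaf stage. After ~10 d in greenhouse, injury was rated visually vs untreated controls, 0 (no effect) to 100 (complete control).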

[10] = system: ryegrass, Italian (Italian ryegrass, Lolium multiflorum); assay: as above
How it was run: as §4

[11] = system: pigweed (Amaranthus retroflexus); assay: as above
How it was run: as §4

[12] = Postemergence, 31 g ai/ha, 0 to 100 scale (0 no effect, 100 complete control)
[13] = Postemergence, 125 g ai/ha, scale 0 to 100, 0 is no effect, 100 is complete control
[14] = Postemergence, 250 g ai/ha, scale 0 to 100, 0 no effect, 100 complete control, 13 to 15 d
[15] = Preemergence, 31 g ai/ha, scale 0 to 100, 0 is no effect, 100 is complete control
[16] = Preemergence, 62 g ai/ha, scale 0 to 100, 0 is no effect, 100 is complete control
[17] = Preemergence, 125 g ai/ha, scale 0 to 100, 0 is no effect, 100 is complete control
[18] = Preemergence, 250 g ai/ha, scale 0 to 100, 0 no effect, 100 complete control
[19] = postemergence, 62 g ai/ha, scale 0 to 100, 0 no effect, 100 complete control
[20] = 125 g ai/ha, visual rating after approx. 10 d, 0 to 100 scale (0 no effect, 100 complete control)
[21] = Postemergence, 500 g ai/ha, 0 to 100 scale, 0 is no effect, 100 is complete control
[22] = Preemergence, 125 g ai/ha, 0 to 100 scale where 0 is no effect and 100 is complete control
[23] = Preemergence, 500 g ai/ha, 0 to 100 scale, 0 no effect, 100 complete control
[24] = Postemergence, 1000 g ai/ha, 0 to 100 scale, 0 is no effect, 100 is complete control
[25] = Preemergence, 1000 g ai/ha, 0 to 100 scale, 0 no effect, 100 complete control

Cc1ccc2ccccc2c1-c1c(O)c(I)nn(C)c1=O [Compound 29]
5: Plant response rating, Oilseed Rape [5, 13] | Plant response rating, Oilseed Rape [5, 17]
100: Plant response rating, Morningglory [1, 13] | Plant response rating, Morningglory [1, 14] | Morningglory plant response rating [1, 19] | Plant response rating, Waterhemp [4, 16] | Plant response rating, Waterhemp [4, 17] | Waterhemp plant response rating [4, 18] | Plant response rating, Pigweed [6, 15] | Plant response rating, Pigweed [6, 16] | Plant response rating, Pigweed [6, 17] | Pigweed plant response rating [6, 18] | Ryegrass, Italian plant response rating [10, 21] | Pigweed plant response rating [11, 21] | Pigweed plant response rating [11, 22] | Plant response rating, Pigweed [11, 23]
85: Morningglory plant response rating [1, 12] | Plant response rating, Ragweed [2, 16] | Plant response rating, Ragweed [2, 17] | Plant response rating, Lambsquarters [3, 13] | Lambsquarters plant response rating [3, 19]
40: Plant response rating, Wheat ([9]; 125 g ai/ha, 0 to 100 scale where 0 is no effect and 100 is complete control)
60: Wheat plant response rating ([9]; 500 g ai/ha)
0: Oilseed Rape plant response rating [5, 12] | Plant response rating, Oilseed Rape [5, 14] | Plant response rating, Oilseed Rape [5, 15] | Plant response rating, Oilseed Rape [5, 16] | Oilseed Rape plant response rating [5, 19]
95: Plant response rating, Morningglory [1, 16] | Plant response rating, Morningglory [1, 17] | Plant response rating, Ragweed [2, 13] | Plant response rating, Ragweed [2, 14] | Pigweed plant response rating [6, 12] | Pigweed plant response rating [6, 19]
75: Plant response rating, Lambsquarters [3, 15]
70: Waterhemp plant response rating [4, 12] | Oilseed Rape plant response rating [5, 18] | Plant response rating, Blackgrass [8, 20]
90: Ragweed plant response rating [2, 18] | Ragweed plant response rating [2, 19] | Plant response rating, Lambsquarters [3, 14] | Lambsquarters plant response rating [3, 18] | Plant response rating, Galium [7, 20] | Galium plant response rating ([7]; 500 g ai/ha) | Plant response rating, Ryegrass, Italian ([10]; Postemergence, 125 g ai/ha, 0 to 100 scale where 0 is no effect and 100 is complete control) | Plant response rating, Ryegrass, Italian [10, 23] | Plant response rating, Pigweed ([11]; Postemergence, 125 g ai/ha, visual rating after approx. 10 d, 0 to 100 scale (0 no effect, 100 complete control))
80: Plant response rating, Morningglory [1, 15] | Ragweed plant response rating [2, 12] | Plant response rating, Ragweed [2, 15] | Lambsquarters plant response rating [3, 12] | Plant response rating, Lambsquarters [3, 16] | Plant response rating, Lambsquarters [3, 17] | Plant response rating, Waterhemp [4, 13] | Waterhemp plant response rating [4, 19] | Blackgrass plant response rating ([8]; 500 g ai/ha) | Ryegrass, Italian plant response rating [10, 22]
98: Morningglory plant response rating [1, 18] | Plant response rating, Waterhemp [4, 14] | Plant response rating, Pigweed [6, 13] | Plant response rating, Pigweed [6, 14]

CCc1ccc2ccccc2c1-c1c(O)c(C)nn(C)c1=O [Compound 32]
60: Plant response rating, Oilseed Rape [5, 13] | Oilseed Rape plant response rating [5, 19]
75: Pigweed plant response rating [6, 12]
95: Plant response rating, Ragweed [2, 17] | Plant response rating, Pigweed [6, 14]
80: Plant response rating, Morningglory [1, 15] | Plant response rating, Lambsquarters [3, 15] | Waterhemp plant response rating [4, 19]
90: Morningglory plant response rating [1, 12] | Plant response rating, Morningglory [1, 16] | Plant response rating, Ragweed [2, 16] | Ragweed plant response rating [2, 19] | Lambsquarters plant response rating [3, 18] | Lambsquarters plant response rating [3, 19] | Plant response rating, Oilseed Rape [5, 14] | Plant response rating, Oilseed Rape [5, 16] | Plant response rating, Oilseed Rape [5, 17] | Plant response rating, Pigweed [6, 13] | Pigweed plant response rating [6, 19] | Blackgrass plant response rating ([8]; 1000 g ai/ha)
10: Oilseed Rape plant response rating [5, 12]
100: Plant response rating, Morningglory [1, 13] | Plant response rating, Morningglory [1, 14] | Morningglory plant response rating [1, 19] | Plant response rating, Lambsquarters [3, 14] | Plant response rating, Waterhemp [4, 16] | Plant response rating, Waterhemp [4, 17] | Waterhemp plant response rating [4, 18] | Oilseed Rape plant response rating [5, 18] | Plant response rating, Pigweed [6, 15] | Plant response rating, Pigweed [6, 16] | Plant response rating, Pigweed [6, 17] | Pigweed plant response rating [6, 18] | Galium plant response rating ([7]; 1000 g ai/ha) | Wheat plant response rating ([9]; 1000 g ai/ha) | Ryegrass, Italian plant response rating [10, 24] | Plant response rating, Ryegrass, Italian [10, 25] | Pigweed plant response rating [11, 24] | Plant response rating, Pigweed [11, 25]
70: Plant response rating, Lambsquarters [3, 16] | Waterhemp plant response rating [4, 12]
85: Ragweed plant response rating [2, 12] | Plant response rating, Ragweed [2, 15] | Lambsquarters plant response rating [3, 12] | Plant response rating, Lambsquarters [3, 17] | Plant response rating, Waterhemp [4, 13]
98: Plant response rating, Morningglory [1, 17] | Morningglory plant response rating [1, 18] | Plant response rating, Ragweed [2, 13] | Plant response rating, Ragweed [2, 14] | Ragweed plant response rating [2, 18] | Plant response rating, Lambsquarters [3, 13] | Plant response rating, Waterhemp [4, 14]
25: Plant response rating, Oilseed Rape [5, 15]
